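Tested at 5 concentrations; 48 h exposure; 96-well plates; endpoints linearly interpolated, else capped at highest concentration. Here, GI50 denotes the concentration required for 50% inhibition of growth.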 The source made the active and inactive calls. Rule as the data show it: active = GI50 up to about 1.1 µM and inactive = higher.
How the values were obtained:
Assay in all cases: NCI-60 cell line screen, 48 h
HCC 2998 = test system: HCC 2998
Malme-3M = test system: Malme-3M
MOLT-4 = test system: MOLT-4
ACHN = test system: ACHN
HCT-116 = test system: HCT-116
HOP-62 = test system: HOP-62
OVCAR-4 = test system: OVCAR-4
UACC-257 = test system: UACC-257
SN12C = test system: SN12C
RXF 631 = test system: RXF 631
SF-295 = test system: SF-295
SNB-78 = test system: SNB-78
NCI-H23 = test system: NCI-H23
RPMI-8226 = test system: RPMI-8226
KM12 = test system: KM12
DLD-1 = test system: DLD-1
COLO 205 = test system: COLO 205
SNB-75 = test system: SNB-75
SF-539 = test system: SF-539
LOX IMVI = test system: LOX IMVI
IGROV-1 = test system: IGROV-1
TK-10 = test system: TK-10
SK-MEL-5 = test system: SK-MEL-5
OVCAR-5 = test system: OVCAR-5
SK-MEL-28 = test system: SK-MEL-28
DMS-114 = test system: DMS-114
SK-OV-3 = test system: SK-OV-3
CAKI-1 = test system: CAKI-1
K562 = test system: K562
UO-31 = test system: UO-31
HOP-92 = test system: HOP-92
CCRF-CEM = test system: CCRF-CEM
HT-29 = test system: HT-29
OVCAR-8 = test system: OVCAR-8
XF498 = test system: XF498
HL-60 = test system: HL-60
U-251 = test system: U-251
NCI-H460 = test system: NCI-H460
786-0 = test system: 786-0
RXF 393 = test system: RXF 393
LXFL 529 = test system: LXFL 529
SNB-19 = test system: SNB-19
HCT-15 = test system: HCT-15
A549 = test system: A549
KM-20L2 = test system: KM-20L2
M19-MEL = test system: M19-MEL
UACC-62 = test system: UACC-62
NCI-H522 = test system: NCI-H522
SW-620 = test system: SW-620
SF-268 = test system: SF-268
SR = test system: SR
NCI-H226 = test system: NCI-H226
OVCAR-3 = test system: OVCAR-3
M14 = test system: M14
DMS-273 = test system: DMS-273
A498 = test system: A498
EKVX = test system: EKVX
SK-MEL-2 = test system: SK-MEL-2

CCN1CCN(c2ccc(Nc3ccnc4ccc5nn(C)nc5c34)cc2)CC1
GI50 (HCC 2998): 13.2 µM (inactive) | GI50 (Malme-3M): 16.9 µM (inactive) | GI50 (MOLT-4): 4.5 µM (inactive) | GI50 (ACHN): 10.6 µM (inactive) | GI50 (HCT-116): 5.58 µM (inactive) | GI50 (HOP-62): 13.1 µM (inactive) | GI50 (OVCAR-4): 11.9 µM (inactive) | GI50 (UACC-257): 16.6 µM (inactive) | GI50 (SN12C): 10.7 µM (inactive) | GI50 (RXF 631): 10 µM (inactive) | GI50 (SF-295): 12.4 µM (inactive) | GI50 (SNB-78): 14.2 µM (inactive) | GI50 (NCI-H23): 15.4 µM (inactive) | GI50 (RPMI-8226): 7.08 µM (inactive) | GI50 (KM12): 10.7 µM (inactive) | GI50 (DLD-1): 11.6 µM (inactive) | GI50 (COLO 205): 5.08 µM (inactive) | GI50 (SNB-75): 13.2 µM (inactive) | GI50 (SF-539): 13.8 µM (inactive) | GI50 (LOX IMVI): 7.18 µM (inactive) | GI50 (IGROV-1): 18.6 µM (inactive) | GI50 (TK-10): 17.5 µM (inactive) | GI50 (SK-MEL-5): 15.2 µM (inactive) | GI50 (OVCAR-5): 15.9 µM (inactive) | GI50 (SK-MEL-28): 16.6 µM (inactive) | GI50 (DMS-114): 10.1 µM (inactive) | GI50 (SK-OV-3): 13.8 µM (inactive) | GI50 (CAKI-1): 12.8 µM (inactive) | GI50 (K562): 5.12 µM (inactive) | GI50 (UO-31): 12.8 µM (inactive) | GI50 (HOP-92): 11.9 µM (inactive) | GI50 (CCRF-CEM): > 100 µM (inactive) | GI50 (HT-29): 4.26 µM (inactive) | GI50 (OVCAR-8): 9.71 µM (inactive) | GI50 (XF498): 13.9 µM (inactive) | GI50 (HL-60): 94.8 µM (inactive) | GI50 (U-251): 13.5 µM (inactive) | GI50 (NCI-H460): 5.41 µM (inactive) | GI50 (786-0): 10.4 µM (inactive) | GI50 (RXF 393): 10.2 µM (inactive) | GI50 (LXFL 529): 10.7 µM (inactive) | GI50 (SNB-19): 18.7 µM (inactive) | GI50 (HCT-15): 13.8 µM | GI50 (A549): 13.8 µM (inactive) | GI50 (KM-20L2): 8.36 µM (inactive) | GI50 (M19-MEL): 16.1 µM (inactive) | GI50 (UACC-62): 16.9 µM (inactive) | GI50 (NCI-H522): 11.1 µM (inactive) | GI50 (SW-620): 4.22 µM (inactive) | GI50 (SF-268): 14.9 µM (inactive) | GI50 (SR): 4.22 µM (inactive) | GI50 (NCI-H226): 12.3 µM (inactive) | GI50 (OVCAR-3): 13.5 µM (inactive) | GI50 (M14): 16.1 µM (inactive)

COc1ccc(/C=C\c2cc(OC)c(O[Si](C)(C)C(C)(C)C)c(OC)c2)cc1
GI50 (HCC 2998): 26.1 µM (inactive) | GI50 (Malme-3M): 34.8 µM (inactive) | GI50 (MOLT-4): 15.8 µM (inactive) | GI50 (ACHN): 31.2 µM (inactive) | GI50 (HCT-116): 33.7 µM (inactive) | GI50 (HOP-62): > 100 µM (inactive) | GI50 (OVCAR-4): 76.6 µM (inactive) | GI50 (UACC-257): 21.7 µM (inactive) | GI50 (SN12C): 39.1 µM (inactive) | GI50 (RXF 631): 45.8 µM (inactive) | GI50 (NCI-H23): 54 µM (inactive) | GI50 (RPMI-8226): 27.4 µM (inactive) | GI50 (KM12): 47.2 µM (inactive) | GI50 (DLD-1): 45.3 µM (inactive) | GI50 (COLO 205): 68.9 µM (inactive) | GI50 (SNB-75): 64.9 µM (inactive) | GI50 (SF-539): 37.8 µM (inactive) | GI50 (IGROV-1): > 100 µM (inactive) | GI50 (SK-MEL-5): > 10 µM (inactive) | GI50 (OVCAR-5): 20.6 µM (inactive) | GI50 (SK-MEL-28): 13.2 µM (inactive) | GI50 (DMS-114): 20.3 µM (inactive) | GI50 (SK-OV-3): > 100 µM (inactive) | GI50 (CAKI-1): 49.3 µM (inactive) | GI50 (K562): 39.1 µM (inactive) | GI50 (UO-31): 80.9 µM (inactive) | GI50 (HOP-92): 28.3 µM (inactive) | GI50 (CCRF-CEM): 23.7 µM (inactive) | GI50 (HT-29): 15 µM (inactive) | GI50 (DMS-273): 44.4 µM (inactive) | GI50 (OVCAR-8): 15.6 µM (inactive) | GI50 (XF498): 22.6 µM (inactive) | GI50 (U-251): 19.4 µM (inactive) | GI50 (NCI-H460): 33 µM (inactive) | GI50 (786-0): 39.9 µM (inactive) | GI50 (LXFL 529): 33.7 µM (inactive) | GI50 (SNB-19): 47.6 µM (inactive) | GI50 (A498): 21 µM (inactive) | GI50 (A549): 38.6 µM (inactive) | GI50 (KM-20L2): 45.3 µM (inactive) | GI50 (EKVX): 70 µM (inactive) | GI50 (M19-MEL): 32.3 µM (inactive) | GI50 (UACC-62): 55 µM (inactive) | GI50 (NCI-H522): 38.5 µM (inactive) | GI50 (SW-620): 33.3 µM (inactive) | GI50 (SF-268): 45.5 µM (inactive) | GI50 (SR): 19.7 µM (inactive) | GI50 (NCI-H226): 31.8 µM (inactive) | GI50 (SK-MEL-2): 23.9 µM (inactive) | GI50 (OVCAR-3): 55.5 µM (inactive) | GI50 (M14): 45.4 µM (inactive)
